These results are taken from ChEMBL document CHEMBL1123912, “Analogues of the cytostatic and antimitogenic agents chlamydocin and HC-toxin: synthesis and biological activity of chloromethyl ketone and diazomethyl ketone functionalized cyclic tetrapeptides” (J Med Chem, 1987).

Converted amounts (≈) assume the structure as drawn.

The species entered for the first experiment is Mus musculus. The experiment in a line: Compound was evaluated for the inhibition of Con A (concanavalin A) stimulated murine thymocyte mitogenesis.
Conditions: not given
Type of experiment: functional.
Take `C[C@@H]1NC(=O)[C@H](C)NC(=O)[C@@H]2CCCN2C(=O)[C@H](CCCCCC(=O)CCl)NC1=O`: the IC50 worked out at 0.04 µg/mL (≈ 0.0903 µM).
`C[C@@H]1NC(=O)[C@H](C)NC(=O)[C@@H]2CCCN2C(=O)[C@H](CCCCCC(=O)C=[N+]=[N-])NC1=O`: the IC50 was > 2 µg/mL.
Take `C[C@@H]1NC(=O)[C@H](Cc2ccccc2)NC(=O)[C@@H]2CCCN2C(=O)[C@H](CCCCCC(=O)CCl)NC1=O`: it took 0.1 µg/mL (≈ 0.193 µM) to reach half-maximal inhibition (IC50).
`CC1(C)NC(=O)[C@H](CCCCCC(=O)CCl)NC(=O)[C@H]2CCCN2C(=O)[C@H](Cc2ccccc2)NC1=O` returned an IC50 of 0.01 µg/mL (≈ 0.0188 µM).
The compound `CC1(C)NC(=O)[C@H](CCCCCC(=O)[C@H]2CO2)NC(=O)[C@H]2CCCN2C(=O)[C@H](Cc2ccccc2)NC1=O` [CHLAMYDOCIN] returned an IC50 of 0.003 µg/mL (≈ 0.0057 µM).

For the next experiment, the system named is P815. The experiment in a line: Compound was evaluated for the inhibition of cell growth in mouse P-815 mastocytoma cells. The experiment is classed as functional. As to conditions: read-out: ED50 (the source's name).
Regarding `CC1(C)NC(=O)[C@H](CCCCCC(=O)[C@H]2CO2)NC(=O)[C@H]2CCCN2C(=O)[C@H](Cc2ccccc2)NC1=O` [CHLAMYDOCIN], the EC50 is 0.00036 µg/mL (≈ 0.000684 µM).
